Measurements from article PMC7883289, “Synthesis of Paeonol-Ozagrel Conjugate: Structure Characterization and In Vivo Anti-Ischemic Stroke potential” (Frontiers in Pharmacology, 2021).

Key:
[1] = test system: IL–6, IL–1β, TNF–α; assay: ELISA assay for inflammatory cytokines in brain tissue of MCAO rats; type: in vivo; conditions: versus model group (p < 0.001), paeonol and OS 3 mg/kg, POC 4.5 mg/kg iv, n = 6
Method: Male Sprague Dawley (SD) rats weighing among 220 g-230 g (Anhui Medicine University, Hefei, China; certificate number: SCXK20190,003) were housed under ad libitum access to food and water with a standardized light-dark cycle condition (25 ± 2°C, 12-hour light/dark cycle). All the experimental protocols were performed in accordance with the Institutional Animal Care and Use Committee of Anhui University of Chinese Medicine (Animal ethics number: AHUCM-rats-2019001). We used the minimal number of study animals (n = 6 rats in each group for different experiments). The rats were fastened upon the operating table in a supine position after being anesthetized with 2% pelltobarbitalum natricum (50 mg/kg). After disinfection of the skin within close proximity of the operative region, the right common carotid artery (CCA), external carotid artery (ECA) and internal carotid artery (ICA) were exposed with blunt dissection. The CCA was temporarily ligated and the ECA were permanently ligated ([Liu et al., 2016]). […] According to the manufacturer's instructions, the levels of inflammatory cytokines (IL - 6, IL-1β, TNF-α; R&D Systems, Minneapolis, MN, United States) and TXA2 (Wuhan ColorfulGene Biological Technology Co., LTD) were detected using the commercial ELISA kits. The resultant colored products were measured the absorbance at 450 nm. […]

[2] = Partition coefficient, shake-flask method (n-octanol / aqueous phase); type: physicochemical; conditions: n-octanol / aqueous phase buffered with phosphate pH 7.4, shake-flask, HPLC
Method: The partition coefficient of POC was established by the shake-flask method between n–octanol and an aqueous phase ([Redasani and Bari, 2012]). The aqueous phase buffered with phosphate (pH 7.4, 100 ml) and n–octanol (100 ml) was mixed well, placed in a shaking air bath for 72 h, and then left to equilibrate until the two saturated phases completely separated. POC (5 mg) was dissolved in 50 ml of saturated n-octanol and diluted with the saturated aqueous equally. The mixture was placed in an oscillator and shaken for 1 h until the two phases separated. Concentration was analyzed by HPLC method and then the partition coefficient was calculated as the ratio of the concentration of POC in n–octanol to aqueous. All experiments were made in triplicate.

[3] = test system: middle cerebral artery occlusion (MCAO) rats; assay: Measurement of infarct volume by TTC staining in MCAO rats; type: in vivo; conditions: 24 h after reperfusion, single iv dose: paeonol and OS 3 mg/kg, POC 4.5 mg/kg, n = 6
Method: Male Sprague Dawley (SD) rats weighing among 220 g-230 g (Anhui Medicine University, Hefei, China; certificate number: SCXK20190,003) were housed under ad libitum access to food and water with a standardized light-dark cycle condition (25 ± 2°C, 12-hour light/dark cycle). All the experimental protocols were performed in accordance with the Institutional Animal Care and Use Committee of Anhui University of Chinese Medicine (Animal ethics number: AHUCM-rats-2019001). We used the minimal number of study animals (n = 6 rats in each group for different experiments). The rats were fastened upon the operating table in a supine position after being anesthetized with 2% pelltobarbitalum natricum (50 mg/kg). After disinfection of the skin within close proximity of the operative region, the right common carotid artery (CCA), external carotid artery (ECA) and internal carotid artery (ICA) were exposed with blunt dissection. The CCA was temporarily ligated and the ECA were permanently ligated ([Liu et al., 2016]). A nylon monofilament surgical thread was introduced into the ICA to block the MCA when the blunted distal end met resistance. After 2 h of occlusion, reperfusion was accomplished to restore blood supply to the MCA area by removing the filament ([Li et al., 2009]; [Zhai et al., 2017]). […] Rats were split randomly into five groups, including the sham, model, paeonol, OS and POC group. After 2 h of reperfusion, the paeonol and OS groups received the drug by intravenous injection at a single dose of 3 mg/kg ([Imamura et al., 2003]; [Park et al., 2010]; [Gai et al., 2019]), which the doses of paeonol and OS uesd previously were benificial in rats and the dose of OS is within the clinical dose range. […] Cerebral infarction volume was determined using TTC staining. […] The infarction and total brain volume were quantified using ImageJ software. The infarct volume was calculated as a ratio of the infarcted tissue relative to the total area of the whole-brain coronal section ([Ye and Gao, 2008]; [Katayama et al., 2017]). […]

## COc1ccc(C(C)=O)c(OC(=O)C=Cc2ccc(Cn3ccnc3)cc2)c1 [POC, paeonol-ozagrel conjugate]
[1]
  release of inflammatory cytokines (IL–6, IL–1β, TNF–α) in brain tissue: can inhibit the expression of three markers of inflammatory cytokines
[2]
  logD: 0.425
[3]
  cerebral infarction volume percentage: 11.77% ± 2.53
